The values below come from publication PMC6479639, “Structure-Based Virtual Screening and In Vitro Evaluation of New Trypanosoma cruzi Cruzain Inhibitors” (International Journal of Molecular Sciences, 2019).

For orientation: IC50 means the concentration needed to halve the response being measured.

Data set [1] relates to T. cruzi INC-5 bloodstream trypomastigotes. In words: microbe, parasite or virus in culture. Conditions: Trypanosoma cruzi, 24 h, read-out: LC50 Bloodstream Trypomastigotes T. cruzi INC-5. The text has this: (§1) For biological evaluation, the compounds Z2 (ZINC9873043), Z3 (ZINC9870651), Z5 (ZINC9715287), and Z6 (ZINC9861447) were selected and purchased from Molport https://www.molport.com (accessed on: 03 March 2018). For evaluation of trypanocidal activity of the selected compounds, two strains (NINOA and INC-5) in the epimastigote or trypomastigote stage of T. cruzi were used. Each strain was used to infect CD-1 mice (18–20 g) intraperitoneally with a concentration of 1 × 10^6 trypomastigotes/mL of blood. In the maximum peak of parasitemia, blood was obtained by cardiac puncture using heparin as an anticoagulant. The parasite concentration was then adjusted with isotonic saline (0.85% NaCl), and 90 μL of blood was used to achieve a concentration of 1 × 10^6 trypomastigotes/mL of blood. A 10 μL sample of each compound was evaluated in 96-well plates. The treatments performed consisted of a negative control, which contained dimethylsulfoxide (DMSO 2.5%) and the four compounds selected from virtual screening. […] Once the selected compounds were added after being homogenized with blood, the plates were incubated at 4 °C for 24 h. Once the incubation time had elapsed, the plates were kept at room temperature for 30 min, and then an aliquot of 5 μL was taken from each well, a fresh preparation was made, and the viable trypomastigotes were counted using the Pizzi method. A calculation of the number of viable trypomastigotes per mL of blood was carried out, and the survival percentages were obtained taking 100% of the negative control. Each test was done in triplicate. […] The LC50 values were determined using Probit statistical analysis of the dose-response, and the results were expressed as the mean of the standard deviation. The results were later converted to micromolar units.

Data set [2] relates to T. cruzi INC-5 epimastigotes. In words: microbe, parasite or virus in culture. Conditions: for CC50: Trypanosoma cruzi, read-out: LC50 Epimastigotes T. cruzi INC-5.
Source text: as §1

The next data set has as its system epimastigote. Set-up: method as in PMID 20961766. The note with it: read-out: IC50 replication of the epimastigote; cited from earlier work.
Data set [3] concerns the target cysteine proteases from epimastigotes of Trypanosoma cruzi strain INC-5. The experiment in a line: Enzyme inhibition, protease extract, substrate Z-Phe-Arg-MCA. Conditions: protein extract of INC-5 epimastigotes, Z-Phe-Arg-MCA 5 µM, compounds 6.25–200 µM, pH 6.5. Type of data set: biochemical. How it is done: T. cruzi epimastigotes of the INC-5 strain were used to obtain a protein extract quantified by the Bradford method. Evaluation of the activity was carried out using the synthetic fluorogenic peptide Z-Phe-Arg-MCA as a substrate at 5 µM, with 1 μg of the enzyme extract and the corresponding compounds (Z2, Z3, Z5, and Z6) at different concentrations (6.25–200 µM) using a reaction buffer (50 mM Na2HPO4, 100 mM NaCl, 5 mM EDTA, 2.5 mM dithiothreitol; pH 6.5) at room temperature. As a negative control of enzyme inhibition, the substrate without compounds was evaluated with 2% DMSO (concentration corresponding to the highest dilution of the compounds). Hydrolysis of the substrate was monitored in a continuous assay for 1 h in the Spectramax M5 spectrofluorometer (Molecular Devices) at 380 nm excitation and 440 nm emission. The mean of fluorescence changes was normalized taking the control (without inhibitor) as 100%. The IC50 values were determined from semilog concentration-response plots using the nonlinear curve-fitting method.

Data set [4] concerns trypomastigotes of T. cruzi of the Tulahúen strain in mouse fibroblasts (L929). Further details: method as in Ferreira et al. (2010) and Pinto et al. (2017). The note with it: infected L929 fibroblasts, ref Ferreira et al. (2010) and Pinto et al. (2017); cited from earlier work.
The test system of data set [5] is T. cruzi NINOA bloodstream trypomastigotes. In words: microbe, parasite or virus in culture. Conditions: Trypanosoma cruzi, 24 h, read-out: LC50 Bloodstream Trypomastigotes T. cruzi NINOA.
Source text: as §1

For data set [6] the following is noted: activity previously reported for the compound; cited from earlier work.

As for `O=C(Cn1ccnc1[N+](=O)[O-])NCc1ccccc1` [Bzn, benznidazole, reference compound], the CC50 in data set [1] came out at 225 ± 26.5 µM; in data set [2], 9.64 ± 4.2 µM. In addition, in the data set with epimastigote, the IC50 was 1.8 µM.
As to `Clc1ccc2[nH]c3c(NCCCN4CCOCC4)ncnc3c2c1` [S1, 8-chloro-N-(3-morpholinopropyl)-5H-pyrimido[5,4-b]-indol-4-amine, reference compound], the CC50 in data set [1] and in data set [2] was greater than 250 µM throughout. Moreover, the “LC50 Epimastigotes T. cruzi INC-5” value in data set [2] (half maximal lytic concentration, epimastigotes, INC-5 strain) is on record as “did not show an effect”. Further, the half-maximal inhibitory concentration (IC50) in data set [3] is greater than 200 µM; in data set [4] it was 2.5 µM.
In the case of `Cc1ccc(NC(=O)CCC(=O)N2CCC(c3ccccc3)=N2)cc1S(=O)(=O)N1CCCCC1` [Z2], the CC50 in data set [1] is greater than 250 µM; in data set [2], 239 ± 9.3 µM; in data set [5] it was greater than 250 µM. Moreover, in data set [3], the IC50 is greater than 200 µM. The “Activity Reported” value in data set [6] is reported as “Inhibitor of cannabinoid receptor type 2”.
For the molecule `C[C@H]1CCc2sc(-c3nnc(SCC(=O)N4N=C(c5ccco5)C[C@@H]4c4ccco4)o3)cc2C1` [Z3], the CC50 in data set [1], in data set [2] and in data set [5] was greater than 250 µM each time. Besides, the IC50 in data set [3] is 84.4 µM.
For `COc1ccc([C@H]2CC(c3ccc4ccccc4c3)=NN2C(=O)Cn2cnc3ccsc3c2=O)cc1` [Z4], in data set [6], the “Activity Reported” value is on record as “Amine oxidase inhibitor”.
Regarding `Cc1nnc(SCC(=O)N2N=C(c3ccc4ccccc4c3)C[C@@H]2c2ccccc2)n(N)c1=O` [Z5], the CC50 came out at 185 ± 8.5 µM in data set [1], 36.3 ± 9.9 µM in data set [2] and 166 ± 14.5 µM in data set [5]. The same molecule had an IC50 in data set [3] of 56.2 µM. For the same molecule, in data set [6], the “Activity Reported” value is listed as “Amine oxidase inhibitor”.
In the case of `Cc1ccc(C2=NN(C(=O)CN3C(=O)N[C@](C)(c4ccc(F)c(F)c4)C3=O)[C@H](c3ccco3)C2)cc1` [Z6], the CC50 in data set [1], in data set [2] and in data set [5] was greater than 250 µM each time. The IC50 in data set [3] was determined as 50.4 µM. In addition, in data set [6], the “Activity Reported” value is “Amine oxidase inhibitor”.
On to `O=C(CCC(=O)N1CCC(c2ccccc2)=N1)N1CCN(S(=O)(=O)c2ccc3c(c2)CCC3)CC1` [Z7], for which, in data set [6], the “Activity Reported” value is “Inhibitor of aldo keto reductases”.
With `CN1N=C(C(=O)N2CCc3c(c(C(=O)N4CCOCC4)nn3CCCc3ccccc3)C2)CCC1=O` [Z8], the “Activity Reported” value in data set [6] was “Inhibitor of cathepsin S”.
`C[C@@H](Sc1nnc(C2CCCCC2)o1)C(=O)N1N=C(c2ccc(Cl)cc2)C[C@@H]1c1ccco1` [Z10]: the “Activity Reported” value in data set [6] is “Amine oxidase inhibitor”.
`C[C@H](/C=C/C(=O)C=O)NC(=O)[C@@H](Cc1ccccc1)NC(=O)OCc1ccccc1` [compound 186, reference compound]: the “Activity Reported” value in data set [6] is “Cz inhibitor”.
